# Entries after “also recorded” stand apart in the source; their conditions may differ.
# How the values were obtained:
# [1] = system: human brain P-2 derived aprotinin binding pool Y protease (chymotryptic-like serine protease); assay: Immunoblot assay of APP degradation by the pool Y serine protease; format: biochemical; settings: pool Y 14 ug/ml, APP 35 nM
# Description: Reactions were initiated at 37°C by enzyme addition to achieve the following initial component concentrations in a 16 ul volume: pool Y # 3-5 (14 ug/ml) after purification on a superdex 75 column, APP (35 nM), in 30 mM Mes buffer pH 6.5. Reactions were terminated by addition of 7.5 ul of 3X sample buffer. Immunoblots were developed using the rabbit antiserum to the APP C-terminal domain according to example 8. […] The following controls were also run: no inhibitor (lane 12), ethanol (lane 3), methanol (lane 5), pool Y only (lane 2), APP only at time zero (lane 13) and 4 hr (lane 14). Lanes 1 and 7 respectively show prestained Mr markers and the C-100 standard. Panel (b) 1.8 uM alpha-1-antichymotrypsin (lane 2), 156 uM TLCK (lane 3), 46 uM chymotrypsin inhibitor I (lane 4), 119 uM chymotrypsin inhibitor II (lane 5), 4 uM alpha-2-antiplasmin (lane 6), 51 uM alpha-1-antitrypsin (lane 7), 98 uM chymostatin administered in DMSO (lane 10), 153 uM methanolic TPCK (lane 12). Controls included: no inhibitor (lane 8), DMSO (lane 11), and methanol (lane 13). Pre-stained molecular weight markers and C-100 standards were applied to lanes 1 and 9 respectively. Incubation times of 4 and 2 hr were used in panels a) and b) respectively.
# • i) Sub-cellular fractionation. This was performed essentially as described in Method 1, above. • ii) Solubilization. This was performed essentially as described in Method 1, above. • iii) Aprotinin-sepharose chromatography. Soluble (230 mg), P-2 (216 mg) or microsomal fraction (47 mg) described above was applied to a column of aprotinin sepharose (Sigma, catalog # 42268, 1.5 X 10 cm), previously equilibrated with 20 mM Tris HCl buffer pH 7.0. Once loaded the column was washed with equilibration buffer (100 ml), and then eluted with 60 ml of 50 mM sodium acetate buffer pH 5.0 containing 500 mM sodium chloride. The flow rate was 1.0 ml/min throughout. Eluted fractions (4 ml) were monitored at 280 nm, analysed using the Bradford protein assay, and examined for APP C-terminal processing activity as described in Example 8, using recombinant APP derived by expression in a baculo virus system. […] Active fractions from the purification of the P-2 fraction on aprotinin-sepharose were pooled, dialyzed against 50 mM Tris-HCl pH 7.5 and applied to a mono-Q column (HR 5/5), previously equilibrated with dialysis buffer. Once loaded, the column was eluted essentially as described in Method 1. above. Active fractions (2 ml), were monitored for A 280 nm, total protein (Bradford assay), and for their capacity for baculo virus derived APP C-terminal processing. […] Pools X, Y, and Z were each concentrated to either 2 ml (pool X and Y) or 3.6 ml (pool z) and separately applied to a Superdex 75 column (Pharmacia, Piscataway NJ.) previously equilibrated with 50 mM Tris-HCl pH 7.5, containing 150 mM sodium chloride. Once loaded, the column was eluted with equilibration buffer. Chromatography was performed at a flow rate of 1.0 ml/min throughout. Fractions (1 ml) were monitored for A 280 nm, total protein (Bradford assay) and for C-terminal processing of baculo expressed APP. The gel filtration was calibrated by chromatography of each of the following standard proteins: Thyroglobulin (670 kDa), bovine gamma globulin (158 kDa), ovalbumin (44 kDa), myoglobin (17.5 kDa) and vitamin B 12 (1.35 kDa).
# [2] = system: human AD brain fraction P2 VII APP degrading activity; assay: Immunoblot assay of APP 695 degradation by Mono-Q pool P2 VII; format: biochemical; settings: trial A, PMSF 0.8mM, pH 6.5, 24 hrs, 37°C
# Description: ii) Solubilization. The membranous control or AD subfractions (P-2 or M) were solubilized by adjusting to the following conditions: 2% (v/v) Triton X-100 containing 50 mM Tris HCl buffer, pH 7.5. After stirring at 4°C for 3.5 hrs, the suspensions were centrifuged at 105,000 g x 60 min in a Beckman 70 Ti rotor. The following final protein concentrations were used in solubilization, for P-2 (3.9 to 4.0 mg/ml); and for M (1.4 to 1.6 mg/ml). Solubilized supernatants were stored at -70°C for later use. The soluble fraction was not treated with detergent but rather was adjusted to 50 mM in Tris HCl, pH 7.5, by the addition of stock 1M buffer. iii) Ion-exchange chromatography. Chromatography was performed using a Gilson gradient liquid chromatograph (model 305 and 306 pumps) equipped with a 50 ml Rheodyne stainless steel loop injector model 7125, and connected to a Mono Q HR 10/10 column (Pharmacia, Piscataway, NJ). Absorbance of column effluent was monitored at 280 nm using a Pharmacia UV-M detector and a Kippen-zonen chart recorder. […] In the initial studies, eluted fractions were monitored for A280 nm, total protein (Bradford assay), and peptidase activity (as decsribed in Examples 2 and 3). […] Fractions were monitored for A 280 nm, total protein (Bradford assay), peptidase activity, and activity for C-terminal processing of recombinant APP. […]
# C286.8A = assay: Competitive EIA, peptide epitope mapping of monoclonal antibody C286.8A; format: binding, Murine; settings: Figure 4; plates coated with 50 ng of synthetic APP 695 (597-638); C286.8A (80 ng of IgG) preincubated 60 min at room temperature with competitor peptide
# Description: Following incubation for 60 min at room temperature, plates were washed, and the amount of bound antibody determined by development with horseradish peroxidase-coupled goat-anti mouse polyclonal antibody according to standard procedures (Wunderlich et al., 1992, J. of Immunol. Methods 147:1). Percent competition (% C) of antibody binding to the plate was calculated from the absorbance at 450 nm data using the following equation: % C = 1.0 -(O.D. (+ competitor) - O.D. blank)/(O.D. (- competitor) - O.D. blank)X 100 [formula]
# [3] = Mono-Q ion-exchange fractions of P-2, S and M subfractions of control and AD human cortex; settings: 37°C, up to 24 hrs
# P-2 enzyme (peak B) = P-2 enzyme (peak B) further purified on Superose 6HR (17.5 ug/ml) in acetate, Mes and Tris pH 5.0; settings: human, 37 C, up to 24hr
# [4] = system: cathepsin D (human liver, Cal Biochem); assay: Cathepsin D (2.8 ug/ml) in cocktail buffer 130 mM in each of acetate, Mes and Tris pH 5.0; settings: 37 C, up to 24hr
# cathepsin D = assay: Cathepsin D (2.5 ug/ml), sodium chloride (75 mM), 135 mM in each of tris, Mes and acetate buffer pH 5.0; settings: human, 37 C
# P-2 peak B enzyme = P-2 peak B enzyme (7.5 ug/ml), sodium chloride (75 mM), 135 mM in each of tris, Mes and acetate buffer pH 5.0; settings: human, 37 C
compound,measurement,setting,value
O=S(=O)(F)Cc1ccccc1 [PMSF],Inhibitor sensitivity of the pool Y protease (APP degradation),"[1]; 860 uM PMSF in methanol, Mes pH 6.5, 4 hr, Figure 18a",inhibited
same,Inhibitors (pH 6.5): compounds causing complete inhibition are listed,[2]; 11.5 kDa fragment,PMSF
same,Inhibitors (pH 6.5): compounds causing complete inhibition are listed,[2]; >11.5 kDa fragment,PMSF
"APP 608-624: Synthetic peptide, amino acids 608-624 of human APP695; beta-amyloid peptide sequence 12-28 (PVNGEFSLDDLQPWHSF; isoform APP695; UniProt P05067 608-624, looked up, fragment)",ability to block binding of C286.8A to APP 597-638,C286.8A,did not inhibit binding
CC(C)C[C@H](NC(=O)[C@@H](NC(=O)N[C@@H](Cc1ccccc1)C(=O)O)[C@@H]1CCN=C(N)N1)C(=O)N[C@H](C=O)Cc1ccccc1 [chymostatin],Inhibitor sensitivity of the pool Y protease (APP degradation),"[1]; 98 uM chymostatin administered in DMSO, Mes pH 6.5, 2 hr, Figure 18b",Weak inhibition
597-638: Synthetic peptide containing amino acids 597-638 of human APP695; amino acids 1-42 of the beta-amyloid sequence,ability to block binding of C286.8A to APP 597-638,C286.8A,able to inhibit C286.8A binding in a dose-dependent fashion
"APP 645-695: Synthetic peptide, amino acids 645-695 of human APP695, C-terminal domain, devoid of any beta-amyloid sequence (AADRGLTTRPGSGLTNIKTEEISEVKMDAEFRHDSGYEVHHQKLVFFAEDV; isoform APP695; UniProt P05067 645-695, looked up, fragment)",ability to block binding of C286.8A to APP 597-638,C286.8A,did not inhibit binding
N=C(N)c1ccccc1 [benzamidine],Inhibitor sensitivity of the pool Y protease (APP degradation),"[1]; 5 mM benzamidine, Mes pH 6.5, 4 hr, Figure 18a",without effect
CC(C)CC(NC(=O)C1OC1C(=O)O)C(=O)NCCCCN=C(N)N (stereo not shown) [E-64],Inhibitor sensitivity of the pool Y protease (APP degradation),"[1]; 350 uM E-64, Mes pH 6.5, 4 hr, Figure 18a",unaffected
N-dansyl-Ile-Ser-Glu-Val-Lys-Met-Asp-Ala-Glu-Phe-Arg-His-Asp-Asp-Asp-Asp,cleaved bond,[3],"V-K, major and K-M and M-D and S-E and E-V"
Cc1ccc(S(=O)(=O)N[C@@H](CCCCN)C(=O)CCl)cc1 [TLCK],Inhibitor sensitivity of the pool Y protease (APP degradation),"[1]; 156 uM TLCK, Mes pH 6.5, 2 hr, Figure 18b",did not inhibit at all
Cc1ccc(S(=O)(=O)N[C@@H](Cc2ccccc2)C(=O)CCl)cc1 [TPCK],Inhibitor sensitivity of the pool Y protease (APP degradation),"[1]; 153 uM methanolic TPCK, Mes pH 6.5, 2 hr, Figure 18b",strongly inhibited
N-Dansyl-Ile-Ser-Glu-Val-Lys-Met-Asp-Ala-Glu-Phe-Arg-NH2,cleaved bond,P-2 enzyme (peak B),"Met-Asp, minor; also recorded: Glu-Val, major"
same,cleaved bond,[4],"Glu-Val, major; also recorded: Met-Asp, minor"
same,cleaved bond,cathepsin D,E-V and M-D
same,cleaved bond,P-2 peak B enzyme,E-V and M-D
"APP 597-612: Synthetic peptide containing amino acids 597-612 of human APP695; amino acids 1-16 of the beta-amyloid sequence (LTETKTTVELLPVNGE; isoform APP695; UniProt P05067 597-612, looked up, fragment)",ability to block binding of C286.8A to APP 597-638,C286.8A,able to inhibit C286.8A binding in a dose-dependent fashion
"597-624: Synthetic peptide containing amino acids 597-624 of human APP695; amino acids 1-28 of the beta-amyloid sequence (LTETKTTVELLPVNGEFSLDDLQPWHSF; isoform APP695; UniProt P05067 597-624, looked up, fragment)",ability to block binding of C286.8A to APP 597-638,C286.8A,able to inhibit C286.8A binding in a dose-dependent fashion
"APP 621-631: Synthetic peptide, amino acids 621-631 of human APP695; beta-amyloid peptide sequence 25-35 (WHSFGADSVPA; isoform APP695; UniProt P05067 621-631, looked up, fragment)",ability to block binding of C286.8A to APP 597-638,C286.8A,did not inhibit binding

# Source: patent EP0569777A2 (Bayer Corporation, priority 1992, dated 1993)
